Laboratory results reported in patent US11834392B2, “KDM4B inhibitors for the treatment of inflammatory diseases and disorders” (MUSC FOUNDATION FOR RESEARCH DEVELOPMENT, priority 2019, dated 2023).
“Also recorded” adds a separate entry of the source.

Key:
[1] = tested on: bone marrow derived macrophages (BMDMs); experiment: In vitro periodontal disease inflammation model (IL-6 ELISA after A.a LPS challenge); format: cell-based, C57BL/6 mice; settings: for immunosuppressive action (pro-inflammatory cytokine response to A.a LPS): murine macrophages, A.a LPS challenge
H3K9me3 = H3K9me3 staining to confirm KDM4B inhibitory activity; format: cell-based
KDM4B = target: T1, KDM4B (Homo sapiens, UniProt O94953); experiment: KDM4B inhibition; format: biochemical
T1 sequence (O94953 1-1096): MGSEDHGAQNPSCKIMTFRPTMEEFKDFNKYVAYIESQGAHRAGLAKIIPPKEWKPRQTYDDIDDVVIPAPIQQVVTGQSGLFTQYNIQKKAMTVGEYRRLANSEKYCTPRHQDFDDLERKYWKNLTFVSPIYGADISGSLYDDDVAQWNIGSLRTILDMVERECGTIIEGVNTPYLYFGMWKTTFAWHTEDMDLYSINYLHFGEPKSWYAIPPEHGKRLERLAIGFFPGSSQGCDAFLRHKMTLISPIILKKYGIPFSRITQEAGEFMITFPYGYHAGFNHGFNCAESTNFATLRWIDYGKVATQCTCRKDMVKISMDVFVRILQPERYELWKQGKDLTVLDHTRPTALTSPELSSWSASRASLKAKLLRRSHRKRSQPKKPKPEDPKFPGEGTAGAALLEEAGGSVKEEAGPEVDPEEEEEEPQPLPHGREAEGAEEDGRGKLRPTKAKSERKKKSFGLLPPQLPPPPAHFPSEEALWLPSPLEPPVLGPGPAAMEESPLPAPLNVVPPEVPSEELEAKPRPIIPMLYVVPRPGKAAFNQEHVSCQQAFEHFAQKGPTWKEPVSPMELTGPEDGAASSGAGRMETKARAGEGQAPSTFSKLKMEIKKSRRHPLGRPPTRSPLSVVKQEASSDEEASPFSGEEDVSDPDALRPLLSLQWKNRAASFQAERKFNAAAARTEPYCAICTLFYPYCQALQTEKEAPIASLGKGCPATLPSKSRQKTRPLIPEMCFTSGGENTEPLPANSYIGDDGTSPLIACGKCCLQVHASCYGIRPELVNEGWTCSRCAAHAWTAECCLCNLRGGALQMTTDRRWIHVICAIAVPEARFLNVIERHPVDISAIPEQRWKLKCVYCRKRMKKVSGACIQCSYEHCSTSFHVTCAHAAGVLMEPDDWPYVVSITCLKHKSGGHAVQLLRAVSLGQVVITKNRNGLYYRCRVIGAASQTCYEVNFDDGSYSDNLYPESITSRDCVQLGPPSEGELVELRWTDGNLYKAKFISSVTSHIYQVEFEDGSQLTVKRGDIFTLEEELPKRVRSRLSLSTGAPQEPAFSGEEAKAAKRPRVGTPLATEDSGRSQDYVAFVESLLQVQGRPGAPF

H3K4me = experiment: Global H3K4me levels in fluorescence-stained macrophages after Aa-LPS challenge; format: cell-based
Excerpt: (§1) As such, KDM4B represents a new therapeutic target for treating hyper-inflammatory diseases that result in, for example, bone destruction.

osteoclast progenitors = experiment: Aa-LPS-induced osteoclastogenesis; format: cell-based
Excerpt: as §1

Primary BMDMs [2] = experiment: IL-10 expression by qRT-PCR in BMDMs; format: cell-based; settings: 50 μM 1 hour pre-treatment, A.a LPS 100 ng/mL, 24 hours
Method: Primary BMDMs were isolated and differentiated as previously described and were pre-treated with ML324 at 50 μM for 1 hour followed by A.a LPS (100 ng/mL). […] (FIG. 5D)

Primary BMDMs [3] = experiment: Extracellular flux analysis (seahorse XFe96); format: cell-based
Method: (§2) Primary BMDMs were isolated and differentiated as previously described and were pre-treated with ML324 at 50 uM for 1 hour followed by A.a LPS (100 ng/mL). 24 hours later, extracellular flux was analyzed using a seahorse XFe96 instrument and following metabolic analysis, cells were incubated with phalloidin 488 and DAPI. Representative images were acquired using the Hermes […] system at 10× for morphological analysis. N=4. […] Primary BMDMs were isolated and differentiated as previously described and were pre-treated with ML324 at 50 μM for 1 hour followed by A.a LPS (100 ng/mL). […] (FIG. 5D)

Primary BMDMs [4] = experiment: Macrophage morphology / polarization (phalloidin 488 and DAPI staining); format: cell-based; settings: 50 μM 1 hour pre-treatment, A.a LPS 100 ng/mL, 24 hours
Method: as §2

Solubility = format: physicochemical; settings: at effective doses
KDM4E = target: T2, KDM4E (Homo sapiens, UniProt B2RXH2); settings: in vitro; cited from earlier work
T2 sequence (B2RXH2 1-506): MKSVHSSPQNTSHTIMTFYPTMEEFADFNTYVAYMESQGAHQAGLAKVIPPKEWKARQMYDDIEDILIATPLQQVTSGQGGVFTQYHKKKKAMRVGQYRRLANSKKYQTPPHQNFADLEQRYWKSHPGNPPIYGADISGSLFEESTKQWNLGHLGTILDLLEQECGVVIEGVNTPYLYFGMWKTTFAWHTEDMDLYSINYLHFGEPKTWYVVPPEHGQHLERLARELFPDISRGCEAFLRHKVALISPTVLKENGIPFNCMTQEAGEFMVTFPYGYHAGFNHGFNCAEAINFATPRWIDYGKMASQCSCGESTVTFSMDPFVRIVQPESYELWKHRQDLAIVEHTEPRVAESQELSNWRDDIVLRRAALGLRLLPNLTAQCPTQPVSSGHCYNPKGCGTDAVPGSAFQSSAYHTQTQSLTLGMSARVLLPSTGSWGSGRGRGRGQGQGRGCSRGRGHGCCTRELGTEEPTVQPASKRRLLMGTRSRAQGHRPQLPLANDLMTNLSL

herpes simplex virus = settings: mice, high doses; cited from earlier work
cytomegalovirus = settings: mice, high doses; cited from earlier work
[5] = cited from earlier work

| Structure (SMILES) | dose-dependent immunosuppressive response to A.a LPS [1] | H3K9me3 expression / staining (H3K9me3) | IC50 (KDM4B) [µM] | activity toward KDM4B (KDM4B) | immunosuppressive action (pro-inflammatory cytokine response to A.a LPS) [1] | immunosuppressive action (pro-inflammatory cytokine response to A.a LPS) ([1]; listed as 1) | global H3K4me levels following Aa-LPS challenge (H3K4me) | Aa-LPS-induced osteoclastogenesis (osteoclast progenitors) | IL-10 expression (mRNA) (Primary BMDMs [2]) | glycolytic activity of LPS treated cells (Primary BMDMs [3]; 50 μM 1 hour pre-treatment, A.a LPS 100 ng/mL, 24 hours) | spare respiratory capacity (Primary BMDMs [3]; LPS with or without ML324, compared to PBS control) | macrophage morphology / polarization (M1 phenotype) (Primary BMDMs [4]) | solubility (Solubility) | inhibition of KDM4E (KDM4E) | viral replication of herpes simplex virus (herpes simplex virus) | viral replication of cytomegalovirus (cytomegalovirus) | cell permeability [5] |
| --- | --- | --- | --- | --- | --- | --- | --- | --- | --- | --- | --- | --- | --- | --- | --- | --- | --- |
| O=C(Nc1ccccc1C(=O)O)c1ccc(-c2ccccc2)cc1 [Compound 12, 2-([1,1′-biphenyl]-4-carboxamido)benzoic acid] | dose-dependent immunosuppressive response; also recorded: dose-dependent immunosuppressive effect | concurrent increase in H3K9me3; also recorded: increase in H3K9me3 staining | – | – | – | – | – | – | – | – | – | – | – | – | – | – | – |
| CN(C)CCCNC(=O)c1ccc(-c2cc(O)c3ncccc3c2)cc1 [ML324] | – | – | 4.9 | active | decreases the pro-inflammatory cytokine response | immunosuppressive action | prevented by KDM4B inhibition | significant reduction | significantly higher IL-10 expression | rescued this effect | reduced spare respiratory capacity | alters macrophage polarization; also recorded: able to rescue this effect | highly insoluble at effective doses | known to inhibit | shown to inhibit viral replication | shown to inhibit viral replication | good cell permeability |
